Source: paper PMC8795197, “Safety and activity of WX-0593 (Iruplinalkib) in patients with ALK- or ROS1-rearranged advanced non-small cell lung cancer: a phase 1 dose-escalation and dose-expansion trial” (Signal Transduction and Targeted Therapy, 2022)
Like-named read-outs stand apart in the source and are kept apart here.

What was measured:
[1] = system: NCI-H1975 (EGFR mutant L858R/T790M); test: Cell proliferation inhibition assay; type: cell-based
Ba/F3 (EML4-ALK-L1196M) = test: Cell proliferation inhibition assay; type: cell-based
Ba/F3 ALK-I1171S = test: Growth of transfected Ba/F3 cells (CellTiter-Glo, 3 days); type: cell-based; settings: Mus musculus, BaF3, ALK-I1171S
Procedure: (§1) Harvest cells during the logarithmic growth period and count cells using blood counting chamber. Adjust cell concentration with culture medium. Add 90µl cell suspensions to two 96-well plates to the final cell density as described before. Incubate the plate overnight in humidified incubator at 37℃ with 5% CO2. Dispense 10µl drug solution (10×) to each well (triplicate for each concentration), and the DMSO final concentration in culture medium is 0.1% [v/v]. Culture the plates for 3 days. On Day 3, Read luminescent using Multi Label Reader. The software of GraphPad Prism was used to calculate IC50. The graphical curves were fitted using a nonlinear regression model with a sigmoidal dose response.

Ba/F3 ALK-F1174C = test: as above; type: cell-based; settings: Mus musculus, BaF3, ALK-F1174C
Procedure: as §1

Ba/F3 ALK-G1202R = test: as above; type: cell-based; settings: Mus musculus, BaF3
Procedure: as §1

Ba/F3 ALK-L1152P = test: as above; type: cell-based; settings: Mus musculus, BaF3
Procedure: as §1

Ba/F3 ALK-I1171T = test: as above; type: cell-based; settings: Mus musculus, BaF3
Procedure: as §1

Ba/F3 ALK-L1196M = test: as above; type: cell-based; settings: Mus musculus, BaF3
Procedure: as §1

Ba/F3 ALK-G1269A = test: as above; type: cell-based; settings: Mus musculus, BaF3
Procedure: as §1

Ba/F3 ALK-F1174L = test: as above; type: cell-based; settings: Mus musculus, BaF3
Procedure: as §1

Ba/F3 ALK-T1151Tins = test: as above; type: cell-based; settings: Mus musculus, BaF3
Procedure: as §1

Ba/F3 ALK-C1156Y = test: as above; type: cell-based; settings: Mus musculus, BaF3
Procedure: as §1

Ba/F3 ALK-L1152R = test: as above; type: cell-based; settings: Mus musculus, BaF3
Procedure: as §1

Ba/F3 ALK-I1171N = test: as above; type: cell-based; settings: Mus musculus, BaF3
Procedure: as §1

Ba/F3 ALK-G1202del = test: as above; type: cell-based; settings: Mus musculus, BaF3
Procedure: as §1

Ba/F3 ALK-WT = test: as above; type: cell-based; settings: Mus musculus, BaF3
Procedure: as §1

Ba/F3 ALK-V1180L = test: as above; type: cell-based; settings: Mus musculus, BaF3
Procedure: as §1

[2] = system: patients treated with ALK TKIs; settings: cited from earlier work
Ba/F3 CD74-ROS1-S1986Y = test: Growth of transfected Ba/F3 cells (CellTiter-Glo, 3 days); type: cell-based; settings: Mus musculus, BaF3
Procedure: as §1, with “days.On” for “days. On”

Ba/F3 SLC34A2-ROS1 = test: as above; type: cell-based; settings: Mus musculus, BaF3
Procedure: as §1, with “days.On” for “days. On”

Ba/F3 CD74-ROS1-S1986F = test: as above; type: cell-based; settings: Mus musculus, BaF3
Procedure: as §1, with “days.On” for “days. On”

Ba/F3 CD74-ROS1-L1951R = test: as above; type: cell-based; settings: Mus musculus, BaF3
Procedure: as §1, with “days.On” for “days. On”

[3] = system: Ba/F3 SLC34A2-ROS1-G2032R; test: as above; type: cell-based; settings: Mus musculus, BaF3
Procedure: as §1, with “days.On” for “days. On”

Ba/F3 CD74-ROS1-D2033N = test: as above; type: cell-based; settings: Mus musculus, BaF3
Procedure: as §1, with “days.On” for “days. On”

[4] = system: Ba/F3 SLC34A2-ROS1-L2026M; test: as above; type: cell-based; settings: Mus musculus, BaF3
Procedure: as §1, with “days.On” for “days. On”

[5] = system: 27 non-target kinases (MAP4K4 ... INSR, EGFR wild type); test: Inhibitory study of 27 non-target kinases; type: biochemical; settings: except for EGFR wild type
LU-01-0319R NSCLC PDX = test: PDX model resistant to crizotinib; type: in vivo; settings: WX-0593 2.5, 5, 10 mg/kg; ceritinib 10/20 mg/kg; brigatinib 10 mg/kg
Ba/F3 (EML4-ALK-C1156Y) = test: Cell proliferation inhibition assay; type: cell-based
Ba/F3 (EML4-ALK-WT) = test: Cell proliferation inhibition assay; type: cell-based
Karpas299 (NPM-ALK) = test: Cell proliferation inhibition assay; type: cell-based
[6] = Grades 1 and 2 adverse reactions
[7] = serious adverse events in more than 2 patients

For `COc1cc(N2CCC(N3CCN(C)CC3)CC2)ccc1Nc1ncc(Cl)c(Nc2ccccc2P(C)(C)=O)n1` [Brigatinib], the growth inhibition [1] was “somewhat inhibits the growth”, the growth inhibition (Ba/F3 (EML4-ALK-L1196M)) was “significantly inhibits the growth” and the IC50 (Ba/F3 ALK-I1171S; first listing (r12)) was 93 nM. For the same compound, the IC50 (Ba/F3 ALK-I1171S; second listing (r19)) was 40 nM, the IC50 (Ba/F3 ALK-F1174C; first listing (r10)) was 97 nM and the IC50 (Ba/F3 ALK-F1174C; second listing (r15)) was 51.6 nM. The IC50 (Ba/F3 ALK-G1202R) was 340 nM, the IC50 (Ba/F3 ALK-L1152P) was 1.5 nM and the IC50 (Ba/F3 ALK-I1171T) was 18.9 nM. It also gave an IC50 (Ba/F3 ALK-L1196M) of 31 nM, an IC50 (Ba/F3 ALK-G1269A) of 31 nM and an IC50 (Ba/F3 ALK-F1174L) of 31 nM. For the same compound, the IC50 (Ba/F3 ALK-T1151Tins) was 35 nM, the IC50 (Ba/F3 ALK-C1156Y) was 39 nM and the IC50 (Ba/F3 ALK-L1152R) was 10.4 nM. The IC50 (Ba/F3 ALK-I1171N) was 35 nM, the IC50 (Ba/F3 ALK-G1202del) was 1000 nM and the IC50 (Ba/F3 ALK-WT) was 25 nM. The IC50 (Ba/F3 ALK-V1180L) was 10.4 nM, the coughing [2, 6] was 26% and the diarrhea [2, 6] was 36%. For the same compound, the fatigue [2, 6] was 36%, the headache [2, 6] was 26% and the nausea [2, 6] was 45%. For the same compound, the “diarrhea, % of patients” value [2] was 41%, the “dose reduction due to TEAEs, % of patients” value [2] was 14% and the “DLTs in the tolerability study” value ([2]; one Grade 3 ALT increased, one Grade 4 dyspnea and Grade 3 hypoxia) was “Two”. The coughing [2, 7] was 4%, the dyspnea [2, 7] was 4% and the hypoxia [2, 7] was 4%. The pleural effusion [2, 7] was 4%, the pneumonia [2, 7] was 7% and the IC50 (Ba/F3 CD74-ROS1-S1986Y) was 12.5 nM. It also gave an IC50 (Ba/F3 SLC34A2-ROS1) of 22 nM, an IC50 (Ba/F3 CD74-ROS1-S1986F) of 20.2 nM and an IC50 (Ba/F3 CD74-ROS1-L1951R) of 775 nM. For the same compound, the IC50 [3] was 846 nM, the IC50 (Ba/F3 CD74-ROS1-D2033N) was 36.5 nM and the IC50 [4] was 48 nM. For the same compound, the “inhibitory activity against non-target kinases” value [5] was “no significant inhibitory activity”, the anti-tumor effect (LU-01-0319R NSCLC PDX) was “significant effects against crizotinib-induced resistance” and the growth inhibition (Ba/F3 (EML4-ALK-C1156Y)) was “significantly inhibits the growth”. For the same compound, the growth inhibition (Ba/F3 (EML4-ALK-WT)) was “significantly inhibits the growth” and the growth inhibition (Karpas299 (NPM-ALK)) was “significantly inhibits the growth”.
